The text below walks through data of US20210277020A1, “HETEROCYCLIC COMPOUNDS AS MONOACYLGLYCEROL LIPASE INHIBITORS” (Hoffmann-La Roche Inc., priority 2018, published 2021).

The first assay concerns the target T1, MAGL (recombinant wild-type) (Homo sapiens, UniProt Q99685).
T1 sequence (Q99685 1-303): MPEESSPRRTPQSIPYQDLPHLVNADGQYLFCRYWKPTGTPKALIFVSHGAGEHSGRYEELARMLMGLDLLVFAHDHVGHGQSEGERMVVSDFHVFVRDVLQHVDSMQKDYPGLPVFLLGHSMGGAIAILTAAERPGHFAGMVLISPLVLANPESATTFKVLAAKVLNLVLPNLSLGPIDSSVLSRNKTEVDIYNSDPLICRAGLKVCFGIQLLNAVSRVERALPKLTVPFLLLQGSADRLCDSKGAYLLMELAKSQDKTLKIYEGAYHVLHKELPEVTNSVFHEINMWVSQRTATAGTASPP
Briefly: 4-NPA assay: MAGL inhibition followed by hydrolysis of 4-nitrophenylacetate, absorbance at 405 nm. The following applies: measured in 4-NPA assay (footnote [b]); 1 nM MAGL, 300 μM 4-nitrophenylacetate. In kind it is biochemical. As for the experimental part: Compounds were profiled for MAGL inhibitory activity by measuring the enzymatic activity of MAGL by following the hydrolysis of 4-nitrophenylacetate resulting in 4-nitrophenol, which absorbs at 405-412 nm (G. G. Muccioli, G. Labar, D. M. Lambert, Chem. Bio. Chem. 2008, 9, 2704-2710). This assay is hereinafter abbreviated “4-NPA assay”.
The 4-NPA assay was carried out in 384 well assay plates (black with clear bottom, non-binding surface treated, Corning Ref. 3655) in a total volume of 40 μL. Compound dilutions were made in 100% DMSO (VWR Chemicals 23500.297) in a polypropylene plate in 3-fold dilution steps to give a final concentration range in the assay from 25 μM to 1.7 nM. 1 μL compound dilutions (100% DMSO) were added to 19 μL MAGL (recombinant wild-type) in assay buffer (50 mM TRIS (GIBCO, 15567-027), 1 mM EDTA (Fluka, 03690-100 mL)). The plate was shaked for 1 min at 2000 rpm (Variomag Teleshake) and then incubated for 15 min at RT. To start the reaction, 20 μL 4-Nitrophenlyacetate (Sigma N-8130) in assay buffer with 6% EtOH was added. The final concentrations in the assay were 1 nM MAGL and 300 μM 4-Nitrophenylacetate. After shaking (1 min, 2000 rpm) and 5 min incubation at RT, the absorbance at 405 nm was measured for a fist time (Molecular Devices, SpectraMax Paradigm). A second measurement was then done after incubation for 80 min at RT. From the two measurements, the slope was calculated by subtracting the first from the second measurement.
For `O=C1CO[C@H]2CCN(C(=O)N3CCC(C(=O)N(CCO)Cc4ccccc4)CC3)C[C@H]2N1` [Example 63, N-Benzyl-N-(2-hydroxyethyl)-1-((4aR,8aS)-3-oxooctahydro-2H-pyrido[4,3-b][1,4]oxazine-6-carbonyl)piperidine-4-carboxamide], the IC50 turned out to be 4400 nM.
As to `CN(C(=O)c1ccc(C(F)(F)F)cc1)C1CCN(C(=O)N2CC[C@@H]3OCC(=O)N[C@@H]3C2)CC1` [Example 85, N-[1-[(4aR,8aS)-3-oxo-4,4a,5,7,8,8a-hexahydropyrido[4,3-b][1,4]oxazine-6-carbonyl]piperidin-4-yl]-N-methyl-4-(trifluoromethyl)benzamide], the IC50 is 1990 nM.
The same measure, in the same setting: the result for `O=C1CO[C@H]2CCN(C(=O)N3CCC(C(=O)NCc4ccccc4)CC3)C[C@H]2N1` [Example 65, N-Benzyl-1-((4aR,8aS)-3-oxooctahydro-2H-pyrido[4,3-b][1,4]oxazine-6-carbonyl)piperidine-4-carboxamide] reads 2900 nM.
On the same count and under the same terms, the figure for `CN(C(=O)Cc1cccc(C(F)(F)F)c1)C1CCN(C(=O)N2CC[C@@H]3OCC(=O)N[C@@H]3C2)CC1` [Example 86, N-[1-[(4aR,8aS)-3-oxo-4,4a,5,7,8,8a-hexahydropyrido[4,3-b][1,4]oxazine-6-carbonyl]piperidin-4-yl]-N-methyl-2-[3-(trifluoromethyl)phenyl]acetamide] is 519 nM.

A further assay deals with T2, MAGL (Homo sapiens, UniProt Q99685).
T2 sequence (Q99685 1-303): T1 sequence (Q99685 1-303)
The assay can be described thus: 2-AG assay: MAGL inhibition followed by hydrolysis of 2-arachidonoylglycerol to arachidonic acid, mass spectrometry. To be noted: measured in 2-AG assay (footnote [a]); substrate 2-arachidonoylglycerol 8 μM, 30 min at RT. The assay is classed as biochemical. The essentials: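 Test compounds (final […], 3-fold steps) preincubated 15 min at RT with […] in 50 mM Tris, 1 mM EDTA, 0.01% Tween; 8 μM 2-arachidonoylglycerol then added for 30 min at RT. Acetonitrile quench; arachidonic acid measured by RapidFire SPE–MS/MS, activity from arachidonic acid/d8-arachidonic acid ratio.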
On to `O=C1CO[C@H]2CCN(C(=O)N3CC(C#Cc4ccc(C(F)(F)F)c(Cl)c4)C3)C[C@H]2N1` [Example 160, (4aR,8aS)-6-(3-((3-Chloro-4-(trifluoromethyl)phenyl)ethynyl)azetidine-1-carbonyl)hexahydro-2H-pyrido[4,3-b][1,4]oxazin-3(4H)-one], for which the IC50 turned out to be 1 nM.
Still for that read-out and setting: the figure for `O=C1CO[C@H]2CCN(C(=O)N3CC(C#Cc4ccc(OC(F)(F)F)cc4)C3)C[C@H]2N1` [Example 166, (4aR,8aS)-6-[3-[2-[4-(Trifluoromethoxy)phenyl]ethynyl]azetidine-1-carbonyl]-4,4a,5,7,8,8a-hexahydropyrido[4,3-b][1,4]oxazin-3-one] is 9 nM.
On the same count and under the same terms, the figure for `COCc1ccccc1C#CC1CN(C(=O)N2CC[C@@H]3OCC(=O)N[C@@H]3C2)C1` [Example 191, (4aR,8aS)-6-[3-[2-[2-(Methoxymethyl)phenyl]ethynyl]azetidine-1-carbonyl]-4,4a,5,7,8,8a-hexahydropyrido[4,3-b][1,4]oxazin-3-one] is 81 nM; for `O=C1CO[C@H]2CCN(C(=O)N3CC(C#Cc4ccc(C(F)(F)F)cc4Cl)C3)C[C@H]2N1` [Example 200, (4aR,8aS)-6-(3-((2-Chloro-4-(trifluoromethyl)phenyl)ethynyl)azetidine-1-carbonyl)hexahydro-2H-pyrido[4,3-b][1,4]oxazin-3(4H)-one] it is 2 nM; for `O=C1CO[C@H]2CCN(C(=O)N3CCC(C#Cc4ccc(Cl)cc4Cl)CC3)C[C@H]2N1` [Example 131, (+)-(4aR,8aS)-6-[4-[2-(2,4-Dichlorophenyl)ethynyl]piperidine-1carbonyl]-4,4a,5,7,8,8a-hexahydropyrido[4,3-b][1,4]oxazin-3-one] it is 22 nM.
In turn, `O=C1CO[C@H]2CCN(C(=O)N3CC(C#Cc4ccc(Cl)s4)C3)C[C@H]2N1` [Example 187, (4aR,8aS)-6-[3-[2-(5-Chlorothiophen-2-yl)ethynyl]azetidine-1-carbonyl]-4,4a,5,7,8,8a-hexahydropyrido[4,3-b][1,4]oxazin-3-one] returned an IC50 of 18 nM.
On the same count and under the same terms, the result for `O=C1CO[C@H]2CCN(C(=O)N3CC(C[S+]([O-])c4ccc(C(F)(F)F)cc4Cl)C3)C[C@H]2N1` (single isomer, unassigned) [Example 154] reads 307 nM.
The same measure, in the same setting: the result for `O=C1CO[C@H]2CCN(C(=O)N3CC(C#Cc4ccc(C5CC5)cc4Cl)C3)C[C@H]2N1` [Example 162, (4aR,8aS)-6-(3-((2-Chloro-4-cyclopropylphenyl)ethynyl)azetidine-1-carbonyl)hexahydro-2H-pyrido[4,3-b][1,4]oxazin-3(4H)-one] reads 1 nM; that for `CC1(C#Cc2ccc(F)cc2Cl)CCN(C(=O)N2CC[C@@H]3OCC(=O)N[C@@H]3C2)CC1` [Example 197, (4aR,8aS)-6-(4-((2-Chloro-4-fluorophenyl)ethynyl)-4-methylpiperidine-1-carbonyl)hexahydro-2H-pyrido[4,3-b][1,4]oxazin-3(4H)-one], 230 nM.
Same read-out and setting: the figure for `O=C1CO[C@H]2CCN(C(=O)N3CC(C#Cc4ccc(Cl)cc4F)C3)C[C@H]2N1` [Example 174, (4aR,8aS)-6-[3-[2-(4-Chloro-2-fluorophenyl)ethynyl]azetidine-1-carbonyl]-4,4a,5,7,8,8a-hexahydropyrido[4,3-b][1,4]oxazin-3-one] is 12 nM.
The compound `O=C1CO[C@H]2CCN(C(=O)N3CC(C#Cc4ccc(Cl)cc4C(F)(F)F)C3)C[C@H]2N1` [Example 164, (4aR,8aS)-6-[3-[2-[4-Chloro-2-(trifluoromethyl)phenyl]ethynyl]azetidine-1-carbonyl]-4,4a,5,7,8,8a-hexahydropyrido[4,3-b][1,4]oxazin-3-one] displayed an IC50 of 3 nM.
Same read-out and setting: the result for `Cc1cccc(C)c1C#CC1CCN(C(=O)N2CC[C@@H]3OCC(=O)N[C@@H]3C2)CC1` [Example 195, (4aR,8aS)-6-(4-((2,6-Dimethylphenyl)ethynyl)piperidine-1-carbonyl)hexahydro-2H-pyrido[4,3-b][1,4]oxazin-3(4H)-one] reads 25 nM; that for `O=C1CO[C@H]2CCN(C(=O)N3CC(CSc4ccc(C(F)(F)F)cc4Cl)C3)C[C@H]2N1` [Example 148, (4aR,8aS)-6-[3-[[2-Chloro-4-(trifluoromethyl)phenyl]sulfanylmethyl]azetidine-1-carbonyl]-4,4a,5,7,8,8a-hexahydropyrido[4,3-b][1,4]oxazin-3-one], 2 nM.
Same read-out and setting: the figure for `N#Cc1cccc(Cl)c1C#CC1CN(C(=O)N2CC[C@@H]3OCC(=O)N[C@@H]3C2)C1` [Example 176, 2-[2-[1-[(4aR,8aS)-3-oxo-4,4a,5,7,8,8a-Hexahydropyrido[4,3-b][1,4]oxazine-6-carbonyl]azetidin-3-yl]ethynyl]-3-chlorobenzonitrile] is 50 nM; for `O=C1CO[C@H]2CCN(C(=O)N3CC(C#CC4(O)CCCC4)C3)C[C@H]2N1` [Example 198, (4aR,8aS)-6-[3-[2-(1-Hydroxycyclopentyl)ethynyl]azetidine-1-carbonyl]-4,4a,5,7,8,8a-hexahydropyrido[4,3-b][1,4]oxazin-3-one] it is 507 nM.

For orientation: IC50 means the concentration that inhibits the measured activity by half.
